How the values were obtained:
LsrK (ecLsrK) [1] = target: T1, LsrK (ecLsrK) (Escherichia coli, UniProt P77432); assay: tryptophan fluorescence quenching, modified Stern-Volmer; type: binding; parameters: 530 residues; settings: 0.1 uM LsrK, PBS pH 7.4, 25 °C
LsrK (ecLsrK) [2] = target: T1, LsrK (ecLsrK); assay: biochemical

T1 sequence (P77432 whole entry): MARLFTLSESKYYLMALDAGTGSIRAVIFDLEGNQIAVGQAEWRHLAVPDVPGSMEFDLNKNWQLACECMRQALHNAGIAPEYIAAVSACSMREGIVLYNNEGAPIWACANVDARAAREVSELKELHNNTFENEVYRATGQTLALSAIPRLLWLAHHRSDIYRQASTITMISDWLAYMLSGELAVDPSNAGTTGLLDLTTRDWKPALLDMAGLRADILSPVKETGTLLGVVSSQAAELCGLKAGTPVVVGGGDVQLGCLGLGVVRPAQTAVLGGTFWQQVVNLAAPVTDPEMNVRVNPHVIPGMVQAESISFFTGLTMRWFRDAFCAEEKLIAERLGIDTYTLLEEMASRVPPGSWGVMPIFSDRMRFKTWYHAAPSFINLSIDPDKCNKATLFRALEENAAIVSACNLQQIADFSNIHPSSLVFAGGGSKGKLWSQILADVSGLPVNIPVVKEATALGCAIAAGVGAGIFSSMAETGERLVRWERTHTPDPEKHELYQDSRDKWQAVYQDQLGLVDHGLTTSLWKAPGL

Row | Compound | Kd (LsrK (ecLsrK) [1]) | Kd (LsrK (ecLsrK) [2])
1 | Nc1ncnc2c1ncn2[C@@H]1O[C@H](COP(=O)(O)OP(=O)(O)OP(=O)(O)O)[C@@H](O)[C@H]1O [ATP] |  | 5.07 ± 0.23 µM
2 | Cc1cc(O)c(C=O)c2c1C(=O)Oc1c(COC(=O)/C=C/C(=O)O)c(O)c(C(=O)O)c(C)c1O2 [FP, fumarprotocetraric acid] | 0.217 ± 0.008 µM | 
3 | COC(=O)[C@@H]1OC(=O)C[C@@]1(O)C(=O)OC [Hib-ester, dimethyl (2R,3S)-3-hydroxy-5-oxotetrahydrofuran-2,3-dicarboxylate] | 0.078 µM | 

Further lines, with some results ahead:

Row | Kd (LsrK (ecLsrK) [1]) | Compound | Kd (LsrK (ecLsrK) [2])
4 | 0.19 µM | COc1cc(C)cc2cc3c(c(O)c12)C(=O)CC[C@H]3O [(R)-ASME] | 
5 | 0.14 µM | O=CC1=C(O)C=CCO1 [Hib-carbaldehyde, 5-hydroxy-2H-pyran-6-carbaldehyde] | 

Reference: PMC10056567, “Structural Insights into the Ligand–LsrK Kinase Binding Mode: A Step Forward in the Discovery of Novel Antimicrobial Agents” (Molecules, 2023)
